The values below are quoted from earlier work in patent US20080269334A1, “Highly Concentrated Pourable Aqueous Solutions Of Potassium Ibuprofen, Their Preparation And Their Use” (ALBEMARLE CORPORATION, priority 2005, published 2008).

With `CC(C)Cc1ccc(C(C)C(=O)O)cc1` (stereo not drawn) [ibuprofen], the “solubility of ibuprofen in a solvent system” value (402 mg ibuprofen, 100 mg PEG 600, 3.3 wt % glycerin or propylene glycol, 6.4 wt % water, 38.4 mg KOH, U.S. Pat. Nos. 5,071,643 and 5,360,615) is reported as 67%. Regarding `CC(C)Cc1ccc(C(C)C(=O)[O-])cc1.[K+]` (stereo not drawn) [potassium ibuprofen, potassium 2-(4-isobutylphenyl)propionate], the “concentration of dissolved potassium ibuprofen” value (U.S. Pat. No. 5,912,011 Table 1, system with 35.2 wt % ibuprofen, 33.3 wt % PEG 600, 7.3 wt % water) is listed as 24.2 wt %. The “maximum concentration of dissolved potassium ibuprofen shown” value (U.S. Pat. No. 6,387,400, polyethylene glycol solvent, less than about 50 mole % of ibuprofen converted to the potassium salt) is “about 24.2 wt %”.
